Data published in the supplement of paper PMC10307832.

Assays:
Assay in all cases: relative viability (nuclei count vs DMSO), 5 days (fraction); higher = more cells survive
KN-93 = compound: CN(C/C=C/C1=CC=C(C=C1)Cl)CC2=CC=CC=C2N(CCO)S(=O)(=O)C3=CC=C(C=C3)OC [KN-93]
How it was run: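 Viability is treated-well nuclei as a fraction of vehicle-well nuclei, reported as the median across plates. Before counting, lung cancer cell lines were kept overnight at 37 °C in 1536-well plates, pinned with five √10-spaced library-drug doses on vehicle-anchored plates, and left 5 days without medium change, then fixed, permeabilised and Hoechst-stained in one step, imaged at 4× and counted by MetaXpress. A plate passed only if control CV was below 25% and at least one doubling occurred.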

KN-93 + Linsitinib = compound: CN(C/C=C/C1=CC=C(C=C1)Cl)CC2=CC=CC=C2N(CCO)S(=O)(=O)C3=CC=C(C=C3)OC [KN-93] + C[C@]1(O)C[C@@H](c2nc(-c3ccc4ccc(-c5ccccc5)nc4c3)c3c(N)nccn32)C1 [Linsitinib] (partner 1 µM)
How it was run: (§1)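 Five library-drug doses in √10 steps were combined with a fixed anchor-drug dose, or a single drug was given alone, by pin tool to lung cancer cell lines in 1536-well plates the day after seeding. Nuclei were stained and counted after 5 days. Relative viability is the nuclei count in treated wells over that in vehicle wells, taken as the median of duplicate plates.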

KN-93 + Luminespib = compound: CN(C/C=C/C1=CC=C(C=C1)Cl)CC2=CC=CC=C2N(CCO)S(=O)(=O)C3=CC=C(C=C3)OC [KN-93] + CCNC(=O)c1noc(-c2cc(C(C)C)c(O)cc2O)c1-c1ccc(CN2CCOCC2)cc1 [Luminespib] (partner 0.01 µM)
How it was run: as §1

KN-93 + Vorinostat = compound: CN(C/C=C/C1=CC=C(C=C1)Cl)CC2=CC=CC=C2N(CCO)S(=O)(=O)C3=CC=C(C=C3)OC [KN-93] + O=C(CCCCCCC(=O)Nc1ccccc1)NO [Vorinostat] (partner 1 µM)
How it was run: as §1

KN-93 + Crizotinib = compound: CN(C/C=C/C1=CC=C(C=C1)Cl)CC2=CC=CC=C2N(CCO)S(=O)(=O)C3=CC=C(C=C3)OC [KN-93] + C[C@@H](Oc1cc(-c2cnn(C3CCNCC3)c2)cnc1N)c1c(Cl)ccc(F)c1Cl [Crizotinib] (partner 1 µM)
How it was run: as §1

Cell Line | relative viability (KN-93; 0.08 µM) | relative viability (KN-93; 0.253 µM) | relative viability (KN-93; 2.53 µM) | relative viability (KN-93; 8 µM) | relative viability (KN-93 + Linsitinib; first compound 0.08 µM) | relative viability (KN-93 + Linsitinib; first compound 0.253 µM) | relative viability (KN-93 + Linsitinib; first compound 2.53 µM) | relative viability (KN-93 + Linsitinib; first compound 8 µM) | relative viability (KN-93 + Luminespib; first compound 0.08 µM) | relative viability (KN-93 + Luminespib; first compound 0.253 µM) | relative viability (KN-93 + Luminespib; first compound 2.53 µM) | relative viability (KN-93 + Luminespib; first compound 8 µM) | relative viability (KN-93 + Vorinostat; first compound 0.08 µM) | relative viability (KN-93 + Vorinostat; first compound 0.253 µM) | relative viability (KN-93 + Vorinostat; first compound 2.53 µM) | relative viability (KN-93 + Vorinostat; first compound 8 µM) | relative viability (KN-93 + Crizotinib; first compound 0.08 µM) | relative viability (KN-93 + Crizotinib; first compound 0.253 µM) | relative viability (KN-93 + Crizotinib; first compound 2.53 µM) | relative viability (KN-93 + Crizotinib; first compound 8 µM)
SK-MES-1 | 0.888 | 0.981 | 1.07 | 0.766 | 1.06 | 1.05 | 1.12 | 1.02 | 0.899 | 0.69 | 0.728 | 0.286 | 1.11 | 1.12 | 1.14 | 0.924 | 1.05 | 0.979 | 1.27 | 0.8
SW 1573 | 0.862 | 1.13 | 1.02 | 0.514 | 0.906 | 0.884 | 0.714 | 0.349 | 0.178 | 0.303 | 0.187 | 0.144 | 0.685 | 0.916 | 0.746 | 0.569 | 0.766 | 0.926 | 0.822 | 0.33
UMC-11 | 0.903 | 1.14 | 1.14 | 0.374 | – | 1.19 | 1.13 | 0.713 | 1.01 | 1.33 | 1.32 | 0.346 | 0.364 | 0.35 | 0.359 | 0.267 | – | 0.901 | 0.413 | 0.457
